In patent publication US20050239656A1, “Pyridine compounds or salts thereof and herbicides containing the same” (priority 2002, published 2005):

Key:
[1] = system: barnyardgrass; assay: Test Example 2: soil surface treatment, upland pot test; format: in vivo, Echinochloa crus-galli L.; conditions: observed 20th to 28th day
Procedure, shortened: (§1)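 Upland soil in pots of 1/170,000 ha is sown; on day 1 after sowing the formulated compound (wettable powder or emulsifiable concentrate, predetermined a.i. amount, water volume 1,500 L/ha) is applied to the soil surface with a small sprayer. Percent control is judged by eye 20–28 days later.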

[2] = system: crabgrass; assay: as above; format: in vivo, Digitaria sanguinalis L.; conditions: observed 20th to 28th day
Procedure, shortened: as §1

[3] = system: green foxtail; assay: as above; format: in vivo, Setaria viridis L.; conditions: observed 20th to 28th day
Procedure, shortened: as §1

[4] = system: redroot pigweed; assay: as above; format: in vivo, Amaranthus retroflexus L.; conditions: observed 20th to 28th day
Procedure, shortened: as §1

[5] = system: prickly sida; assay: as above; format: in vivo, Sida spinosa L.; conditions: observed 20th to 28th day
Procedure, shortened: as §1

[6] = system: velvetleaf; assay: as above; format: in vivo, Abutilon theophrasti MEDIC.; conditions: observed 20th to 28th day
Procedure, shortened: as §1

[7] = system: rice; assay: as above; format: in vivo, Oryza sativa L.; conditions: observed 20th to 28th day
Procedure, shortened: as §1

[8] = system: wheat; assay: as above; format: in vivo, Triticum spp.; conditions: observed 20th to 28th day
Text: Upland field soil was put into a 1/170,000 ha pot, and seed of various plants (barnyardgrass, crabgrass, green foxtail, redroot pigweed, prickly sida, velvetleaf, rice, wheat, corn, soybean) were sown. On the 1st day after the sowing, a wettable powder or emulsifiable concentrate having the compound of the present invention formulated in accordance with a usual formulation method, was weighed so that the active ingredient would be a predetermined amount, and diluted with water in an amount of 1,500 L/ha. The herbicide thus adjusted was applied by a small size sprayer for soil surface treatment. On the 20th to 28th days after the application of the herbicide, the growth of the respective plants was visually observed, and the herbicidal effects were evaluated by the growth controlling degrees (%) ranging from 0 (equivalent to the non-treated plot) to 100 (complete kill), whereby the results shown in Table 4, were obtained.

[9] = system: corn; assay: as above; format: in vivo, Zea mays L.; conditions: observed 20th to 28th day
Procedure, shortened: as §1

[10] = system: soybean; assay: as above; format: in vivo, Glycine max Merr.; conditions: observed 20th to 28th day
Procedure, shortened: as §1

[11] = system: barnyardgrass; assay: Test Example 3: paddy pot test, application under submerged conditions; format: in vivo, Echinochloa crus-galli L.; conditions: submerged application at 0.5 leaf stage, visually observed 14 days after application, 0 = non-treated, 100 = complete kill
Procedure, shortened: (§2)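 Barnyardgrass and japanese bulrush sown in flooded paddy soil in greenhouse pots, japanese ribbon wapato tubers planted 1–2 days later; water depth kept at 3–4 cm. Diluted wettable powder or emulsifiable concentrate applied into water at 0.5-leaf or primary-leaf stage at set active-ingredient doses. Growth control scored visually at 14 days, 0 (untreated) to 100% (complete kill).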

[12] = system: japanese bulrush; assay: as above; format: in vivo, Scirpus juncoides; conditions: submerged application at 0.5 leaf stage, visually observed 14 days after application, 0 = non-treated, 100 = complete kill
Procedure, shortened: as §2

[13] = system: rice (var. Nihonbare); assay: Test Example 3: paddy pot test, transplanted rice; format: in vivo, Oryza sativa L.; conditions: applied 4th day after transplantation, visually observed 21st day after application, 0 = non-treated, 100 = complete kill
Procedure, shortened: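 Rice (var. Nihonbare) at 2 leaf stage transplanted 3 cm deep into puddled paddy soil under 3–4 cm flooding; on day 4 after transplanting, diluted wettable powder or emulsifiable concentrate applied by pipette under submerged conditions at a set active-ingredient dose. Growth scored visually 21 days after application, 0 (untreated) to 100 (complete kill) %.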

Row | Structure (SMILES) | Growth controlling degree (%) Barnyardgrass ([1]; active ingredient 250 g/ha) [%] | Growth controlling degree (%) Crabgrass ([2]; active ingredient 250 g/ha) [%] | Growth controlling degree (%) Green foxtail ([3]; active ingredient 250 g/ha) [%] | Growth controlling degree (%) Redroot pigweed ([4]; active ingredient 250 g/ha) [%] | Growth controlling degree (%) Prickly sida ([5]; active ingredient 250 g/ha) [%] | Growth controlling degree (%) Velvetleaf ([6]; active ingredient 250 g/ha) [%] | Growth controlling degree (%) Rice ([7]; active ingredient 250 g/ha) [%] | Growth controlling degree (%) wheat ([8]; active ingredient 250 g/ha) [%] | Growth controlling degree (%) Corn ([9]; active ingredient 250 g/ha) [%] | Growth controlling degree (%) Soyabean ([10]; active ingredient 250 g/ha) [%] | Growth controlling degree (%) Barnyardgrass ([11]; active ingredient 250 g/ha) [%] | Growth controlling degree (%) Japanese bulrush ([12]; active ingredient 250 g/ha) [%] | Growth controlling degree (%) Rice ([13]; active ingredient 250 g/ha) [%] | other results
1 | CC(C)C(c1cnccc1C(F)(F)F)N(C)S(=O)(=O)C=Cc1ccccc1 (racemic) [I-135] | – | – | – | – | – | – | – | – | – | – | – | – | – | Growth controlling degree (%) Barnyardgrass ([1]; active ingredient 500 g/ha): 80%; Growth controlling degree (%) Crabgrass ([2]; active ingredient 500 g/ha): 70%; Growth controlling degree (%) Green foxtail ([3]; active ingredient 500 g/ha): 70%; Growth controlling degree (%) Redroot pigweed ([4]; active ingredient 500 g/ha): 20%; Growth controlling degree (%) Prickly sida ([5]; active ingredient 500 g/ha): 50%; Growth controlling degree (%) Velvetleaf ([6]; active ingredient 500 g/ha): 30%; Growth controlling degree (%) Rice ([7]; active ingredient 500 g/ha): 20%; Growth controlling degree (%) wheat ([8]; active ingredient 500 g/ha): 10%; Growth controlling degree (%) Corn ([9]; active ingredient 500 g/ha): 0%; Growth controlling degree (%) Soyabean ([10]; active ingredient 500 g/ha): 0%; Growth controlling degree (%) Barnyardgrass ([11]; active ingredient 500 g/ha): 98%; Growth controlling degree (%) Japanese bulrush ([12]; active ingredient 500 g/ha): 100%; Growth controlling degree (%) Rice ([13]; active ingredient 500 g/ha): 10%
2 | CC(C)C(c1cnccc1C(F)(F)F)N(C)S(=O)(=O)c1ccc(Br)cc1 (racemic) [I-136] | 70 | 90 | 95 | 10 | 50 | 30 | 50 | 10 | 20 | 10 | 100 | 70 | 0 | –
3 | CC(C)C(Br)C(=O)N(C)C(c1cnccc1C(F)(F)F)C(C)C (stereo not drawn) [Compound I-197] | – | – | – | – | – | – | – | – | – | – | 100 | 98 | 0 | Growth controlling degree (%) Barnyardgrass ([1]; active ingredient 500 g/ha): 100%; Growth controlling degree (%) Crabgrass ([2]; active ingredient 500 g/ha): 100%; Growth controlling degree (%) Green foxtail ([3]; active ingredient 500 g/ha): 100%; Growth controlling degree (%) Redroot pigweed ([4]; active ingredient 500 g/ha): 90%; Growth controlling degree (%) Prickly sida ([5]; active ingredient 500 g/ha): 70%; Growth controlling degree (%) Velvetleaf ([6]; active ingredient 500 g/ha): 50%; Growth controlling degree (%) Rice ([7]; active ingredient 500 g/ha): 40%; Growth controlling degree (%) wheat ([8]; active ingredient 500 g/ha): 50%; Growth controlling degree (%) Corn ([9]; active ingredient 500 g/ha): 20%; Growth controlling degree (%) Soyabean ([10]; active ingredient 500 g/ha): 10%
4 | CCC(Br)C(=O)N(C)C(c1cnccc1C(F)(F)F)C(C)C (stereo not drawn) [Compound I-202] | 100 | 100 | 95 | 80 | 70 | 40 | 60 | 40 | 50 | 35 | 98 | 98 | 10 | –
5 | CC(C)C(c1cnccc1C(F)(F)F)N(C)C(=O)C1CC1 (stereo not drawn) [Compound I-204] | 100 | 100 | 100 | 95 | 95 | 70 | 100 | 95 | 70 | 70 | 100 | 98 | 60 | –
6 | CC(C)=CC(=O)N(C)C(c1cnccc1C(F)(F)F)C(C)C (stereo not drawn) [Compound I-205] | 100 | 100 | 100 | 80 | 70 | 60 | 70 | 95 | 40 | 30 | 100 | 98 | 20 | –
7 | CC(C)C(c1cnccc1C(F)(F)F)N(C)C(=O)C(F)=Cc1ccccc1 (stereo not drawn) [Compound I-207] | 100 | 98 | 100 | 60 | 80 | 50 | 40 | 20 | 30 | 30 | 98 | 100 | 10 | –
8 | CC(C)C(c1cnccc1C(F)(F)F)N(C)C(=O)C(F)(F)F (stereo not drawn) [Compound I-209] | 100 | 98 | 100 | 60 | 70 | 60 | 70 | 70 | 50 | 50 | 98 | 100 | 35 | –
9 | CC(C)C(c1cnccc1C(F)(F)F)N(C)C(=O)CCBr (stereo not drawn) [I-201] | 100 | 100 | 100 | 70 | 60 | 40 | 70 | 60 | 40 | 40 | 98 | 98 | 10 | –
10 | CCCOC(=O)N(C)C(c1cnccc1C(F)(F)F)C(C)C (stereo not drawn) [I-203] | 100 | 100 | 98 | 80 | 60 | 30 | 60 | 30 | 40 | 30 | 100 | 95 | 10 | –
11 | CC(=Cc1ccccc1)C(=O)N(C)C(c1cnccc1C(F)(F)F)C(C)C (stereo not drawn) [I-206] | 100 | 100 | 100 | 70 | 50 | 40 | 40 | 30 | 30 | 20 | 100 | 98 | 10 | –
12 | CC(=O)N(C)C(c1cnccc1C(F)(F)F)C(C)C (stereo not drawn) [I-208] | 100 | 100 | 100 | 90 | 80 | 50 | 100 | 80 | 70 | 60 | 98 | 98 | 70 | –
